Biological target: Multidrug resistance-associated protein 1 (Homo sapiens, UniProt P33527)
Assay: TP_TRANSPORTER: drug resistance in MRP1-expressing NIH/3T3 cells
Assay type: functional, cell-based
Conditions: mouse, nih3t3

Chain of Multidrug resistance-associated protein 1 (P33527 whole entry): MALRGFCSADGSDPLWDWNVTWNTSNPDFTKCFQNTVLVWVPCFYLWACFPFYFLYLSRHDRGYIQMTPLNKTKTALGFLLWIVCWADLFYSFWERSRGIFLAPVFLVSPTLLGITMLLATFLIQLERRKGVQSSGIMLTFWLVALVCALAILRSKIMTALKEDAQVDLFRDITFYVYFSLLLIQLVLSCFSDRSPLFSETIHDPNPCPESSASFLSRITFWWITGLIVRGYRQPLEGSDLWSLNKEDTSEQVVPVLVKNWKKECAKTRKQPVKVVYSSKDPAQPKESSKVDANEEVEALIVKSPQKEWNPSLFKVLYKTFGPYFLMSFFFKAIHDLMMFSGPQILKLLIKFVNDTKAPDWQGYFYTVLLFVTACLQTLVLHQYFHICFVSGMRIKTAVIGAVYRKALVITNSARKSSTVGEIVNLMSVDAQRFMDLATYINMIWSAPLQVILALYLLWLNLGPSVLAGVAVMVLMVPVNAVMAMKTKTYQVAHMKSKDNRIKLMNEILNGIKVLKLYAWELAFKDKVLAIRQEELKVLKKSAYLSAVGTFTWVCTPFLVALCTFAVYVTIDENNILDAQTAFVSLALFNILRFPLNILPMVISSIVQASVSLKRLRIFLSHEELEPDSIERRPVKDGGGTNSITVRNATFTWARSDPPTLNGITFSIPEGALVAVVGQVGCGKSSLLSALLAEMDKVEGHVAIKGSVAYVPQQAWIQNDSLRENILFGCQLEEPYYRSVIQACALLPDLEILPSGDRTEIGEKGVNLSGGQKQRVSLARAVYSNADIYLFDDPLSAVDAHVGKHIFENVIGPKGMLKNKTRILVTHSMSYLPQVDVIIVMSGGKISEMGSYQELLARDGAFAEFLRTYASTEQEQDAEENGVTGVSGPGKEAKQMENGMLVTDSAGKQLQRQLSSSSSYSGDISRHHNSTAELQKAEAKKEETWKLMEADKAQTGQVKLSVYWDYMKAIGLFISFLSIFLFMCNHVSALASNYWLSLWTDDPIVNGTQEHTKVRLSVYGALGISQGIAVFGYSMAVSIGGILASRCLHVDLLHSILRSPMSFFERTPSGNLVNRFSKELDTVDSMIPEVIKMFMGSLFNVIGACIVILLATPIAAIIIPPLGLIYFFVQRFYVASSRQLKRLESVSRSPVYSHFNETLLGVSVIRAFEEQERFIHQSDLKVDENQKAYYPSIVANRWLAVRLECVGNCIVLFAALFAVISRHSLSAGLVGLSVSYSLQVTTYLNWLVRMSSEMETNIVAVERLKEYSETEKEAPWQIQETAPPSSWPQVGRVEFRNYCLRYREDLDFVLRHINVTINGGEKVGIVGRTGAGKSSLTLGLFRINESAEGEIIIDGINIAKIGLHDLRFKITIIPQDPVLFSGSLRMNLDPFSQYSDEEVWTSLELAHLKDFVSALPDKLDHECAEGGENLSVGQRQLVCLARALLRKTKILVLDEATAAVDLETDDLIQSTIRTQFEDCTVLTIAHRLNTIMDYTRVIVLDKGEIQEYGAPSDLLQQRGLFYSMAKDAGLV

SMILES	Activity
CC(C)OC(=O)Nc1cccc(Cl)c1 [CHLORPROPHAM]	substrate []
COc1cccc2c1C(=O)c1c(O)c3c(c(O)c1C2=O)C[C@@](O)(C(=O)CO)C[C@@H]3O[C@H]1C[C@H](N)[C@H](O)[C@H](C)O1 [DOXORUBICIN]	substrate []
COP(=S)(OC)Oc1ccc([N+](=O)[O-])c(C)c1 [FENITROTHION]	substrate []
COc1ccc(C(c2ccc(OC)cc2)C(Cl)(Cl)Cl)cc1 [METHOXYCHLOR]	substrate []

Reference: ChEMBL document CHEMBL2073994, “The multidrug resistance-associated protein 1 transports methoxychlor and protects the seminiferous epithelium from injury” (Toxicol Lett, 2003)
